# Source: PMC7848910, “Multimodularity of a GH10 Xylanase Found in the Termite Gut Metagenome” (Applied and Environmental Microbiology, 2021)
# Tests used:
# Assay in all cases: microscale thermophoresis, initial fluorescence analysis, RED-NHS labelled protein
# Assay type in all cases: binding
# Settings in all cases: 50 mM phosphate pH 7, 0.05% Pluronic F-127
# [1] = target: T1, Pm25ΔCBMs (M6; M7 = Pm25ΔCBMs E546A) (termite gut metagenome, UniProt S0DFK9, E546A, form not given)
# T1 construct: gene Pm25; Pm25 without its two inserted CBM4s (catalytic domain 66-151 and 514-753); synthetic gene, E. coli Tuner(DE3), TALON-purified
# CBM4-1 (M8) = target: T2, CBM4-1 (M8) (termite gut metagenome, UniProt S0DFK9)
# T2 construct: gene Pm25; isolated CBM4-1 domain, L167-L320 by primer name (domain 161-321), pET28a(+), E. coli Tuner(DE3), TALON-purified
# CBM4-2 (M9) = target: T3, CBM4-2 (M9) (termite gut metagenome, UniProt S0DFK9)
# T3 construct: gene Pm25; isolated CBM4-2 domain, D332-D484 by primer name (domain 324-486), pET28a(+), E. coli Tuner(DE3), TALON-purified
# T3 sequence (S0DFK9 332-484 limits assumed): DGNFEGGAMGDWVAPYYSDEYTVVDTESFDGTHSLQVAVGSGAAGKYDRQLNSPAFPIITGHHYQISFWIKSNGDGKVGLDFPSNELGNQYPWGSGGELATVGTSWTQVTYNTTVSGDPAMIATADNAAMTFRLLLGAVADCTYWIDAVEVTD
# T2 sequence (S0DFK9 167-320 limits assumed): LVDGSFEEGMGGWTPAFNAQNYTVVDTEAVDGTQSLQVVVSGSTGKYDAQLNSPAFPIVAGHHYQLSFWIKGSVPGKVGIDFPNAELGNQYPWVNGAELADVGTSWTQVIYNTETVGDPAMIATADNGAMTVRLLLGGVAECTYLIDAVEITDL
# T1 sequence (S0DFK9 30-160 limits assumed, stated change not applied): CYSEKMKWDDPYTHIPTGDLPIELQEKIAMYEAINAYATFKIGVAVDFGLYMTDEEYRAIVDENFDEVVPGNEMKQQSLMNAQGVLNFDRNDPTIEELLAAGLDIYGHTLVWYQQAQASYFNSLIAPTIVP
# T1 sequence (S0DFK9 487-776 E546A limits assumed): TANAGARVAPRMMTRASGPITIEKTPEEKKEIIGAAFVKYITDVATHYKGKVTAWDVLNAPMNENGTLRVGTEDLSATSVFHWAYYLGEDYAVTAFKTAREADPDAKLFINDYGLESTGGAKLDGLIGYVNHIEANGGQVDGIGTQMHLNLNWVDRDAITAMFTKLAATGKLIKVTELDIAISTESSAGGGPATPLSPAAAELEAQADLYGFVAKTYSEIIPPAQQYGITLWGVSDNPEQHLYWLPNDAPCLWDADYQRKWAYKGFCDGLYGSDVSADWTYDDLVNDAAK
compound,measurement,setting,value
"OC1OC[C@@H](O[C@@H]2OC[C@@H](O[C@@H]3OC[C@@H](O[C@@H]4OC[C@@H](O[C@@H]5OC[C@@H](O[C@@H]6OC[C@@H](O)[C@H](O)[C@H]6O)[C@H](O)[C@H]5O)[C@H](O)[C@H]4O)[C@H](O)[C@H]3O)[C@H](O)[C@H]2O)[C@H](O)[C@H]1O (stereo partly drawn) [X6, xylohexaose]",Kd,[1],1500 ± 200 µM
same,Kd,CBM4-1 (M8),4700 ± 400 µM
same,Kd,CBM4-2 (M9),1800 ± 100 µM
